In PMC7144182, “Synthesis, biological evaluation and molecular modelling of 2,4-disubstituted-5-(6-alkylpyridin-2-yl)-1H-imidazoles as ALK5 inhibitors” (Journal of Enzyme Inhibition and Medicinal Chemistry, 2020):
“And” between values parts separate entries of the source, which are not always exact repeats. Equal entries are not always repeated.

Legend:
[1] = tested on: ALK5; details: cited from earlier work
[2] = tested on: ALK5; details: cited from earlier work; remark: listed apart in the source
[3] = rats; cited from earlier work
[4] = tested on: TGF-β1-induced luciferase reporter activity, HaCaT (3TP-luc) stable cells; test: Cell-based p3TP-luciferase reporter assay; details: for p3TP-luciferase activity (% control): 0.1 μM inhibitor, TGF-β1 2 ng/mL, 24 h, mean ± SD of three independent experiments; for IC50: Homo sapiens, HaCaT, read-out: IC50 for p3TP-luciferase
Protocol: To establish HaCaT (3TP-luc) stable cells, cells were seeded on six-well plates. Cells were allowed to adhere overnight and then transfected with the p3TP-luc (neo) expression plasmid using PEI reagent (Sigma Aldrich). Transfected cells were cultured for four weeks in the presence of G418 (500 µg/mL). Several single clones were isolated and measured luciferase activity. The clone showing response to TGF-β1 treatment was used for reporter assay. HaCaT (3TP-luc) stable cells were seeded at 2.5 × 10^4 cells/well in 96-well plate and were allowed to adhere overnight. Cells were concomitantly treated with TGF-β1 (2 ng/mL) and indicated concentrations of ALK5 inhibitors in 0.2% FBS medium and incubated for 24 h at 37 °C in 5% CO2. Cell lysates were prepared using Luciferase Assay System (Promega) according to the manufacturer’s instruction, and luminescence was measured by a luminometer, Micro Lumat Plus (Berthold, Germany).

[5] = tested on: Caco-2 cells; test: Caco-2 cell permeability assay; assay type: in vitro ADME; details: 100 µM, AP to BL, 2 h; mean ± SD of quadruplicates
Protocol: Caco-2 cells were seeded in Transwell® polycarbonate filter at a density of 8 × 10^4 cells/filter and cultured for 21 days. Culture medium was removed from both apical (AP) and basolateral (BL) chambers of transwell, and the wells were rinsed three times with PBS. AP buffer (HBSS, pH 6.5) containing 10 mM MES and BL buffer (HBSS, pH 7.4) containing 10 mM HEPES were loaded in AP (500 µL) and BL (1500 µL) chambers, respectively, followed by incubation for 30 min at 37 °C. Then, test compound (100 µM) was added to the AP side and incubated for 2 h at 37 °C. After the incubation, BL buffer was collected and analysed using an UV spectrophotometer at a maximum wavelength (wavelength 225–357 nm).
To estimate oral absorption of target compounds, their permeability in a Caco-2 monolayer was evaluated at a concentration of 100 µM (Table 1).

[6] = molecular target: T1, purified human ALK5 kinase domain (Homo sapiens, UniProt P36897); test: ALK5 kinase assay (33PanQinase, casein as substrate); assay type: biochemical; details: for IC50: casein substrate, 1 μM ATP, singlicate (11e: mean of triplicates)
T1 construct: using the purified human ALK5 kinase domain produced in Sf9 insect cells; host or cells: Sf9 insect cells
T1 sequence (P36897 205-495 limits assumed): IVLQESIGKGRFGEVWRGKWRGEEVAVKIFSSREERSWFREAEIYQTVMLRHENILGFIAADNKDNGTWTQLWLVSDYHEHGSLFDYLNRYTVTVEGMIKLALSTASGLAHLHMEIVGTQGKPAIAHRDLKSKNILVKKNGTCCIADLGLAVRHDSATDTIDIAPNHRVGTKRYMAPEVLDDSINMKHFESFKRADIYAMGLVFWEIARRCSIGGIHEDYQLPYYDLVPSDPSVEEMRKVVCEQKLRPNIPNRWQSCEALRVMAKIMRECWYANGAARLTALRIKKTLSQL
Protocol: To evaluate whether these potential inhibitors 7a–c, 11a–h, and 16a–h could inhibit ALK5, a kinase assay was performed using the purified human ALK5 kinase domain produced in Sf9 insect cells and casein as a substrate (Table 1).

[7] = molecular target: p38α (Homo sapiens, UniProt Q16539); test: p38α kinase assay (33PanQinase, ATF2 as substrate); assay type: biochemical; details: for IC50: ATF2 substrate, mean of duplicates
Sequence of p38α (Q16539 whole entry): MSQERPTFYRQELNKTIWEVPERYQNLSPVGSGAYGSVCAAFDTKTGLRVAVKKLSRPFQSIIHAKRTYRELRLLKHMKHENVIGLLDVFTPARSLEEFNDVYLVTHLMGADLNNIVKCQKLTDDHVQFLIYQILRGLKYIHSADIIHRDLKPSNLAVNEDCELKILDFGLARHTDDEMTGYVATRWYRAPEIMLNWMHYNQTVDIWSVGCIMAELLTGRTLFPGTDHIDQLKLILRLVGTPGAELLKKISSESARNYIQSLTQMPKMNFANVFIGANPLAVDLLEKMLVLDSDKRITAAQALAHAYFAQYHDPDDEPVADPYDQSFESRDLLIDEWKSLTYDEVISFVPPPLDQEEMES

[8] = tested on: panel of 28 protein kinases; details: panel of 28 protein kinases (19 serine/threonine, 9 tyrosine kinases)
Source text: Because ALK5 is a serine/threonine kinase, we chose 19 serine/threonine kinases including ALK5 and an ALK family kinase, ACV-R1 (ALK5, ACV-R1, Aurora-A, ARK5, B-Raf, CK2α1, COT, DAPK1, IRAK4, JNK3, MAPKAPK5, MST4, NEK2, NLK, PAK1, PIM1, PRK1, S6K, SGK1) and 9 tyrosine kinases (ABL1, CSK, FGF-R1, FLT3, IGF1-R, PDGFR-α, SRC, VEGF-R1, ZAP70).

[9] = molecular target: T2, ALK5 (Homo sapiens, UniProt P36897)
T2 sequence (P36897 34-503): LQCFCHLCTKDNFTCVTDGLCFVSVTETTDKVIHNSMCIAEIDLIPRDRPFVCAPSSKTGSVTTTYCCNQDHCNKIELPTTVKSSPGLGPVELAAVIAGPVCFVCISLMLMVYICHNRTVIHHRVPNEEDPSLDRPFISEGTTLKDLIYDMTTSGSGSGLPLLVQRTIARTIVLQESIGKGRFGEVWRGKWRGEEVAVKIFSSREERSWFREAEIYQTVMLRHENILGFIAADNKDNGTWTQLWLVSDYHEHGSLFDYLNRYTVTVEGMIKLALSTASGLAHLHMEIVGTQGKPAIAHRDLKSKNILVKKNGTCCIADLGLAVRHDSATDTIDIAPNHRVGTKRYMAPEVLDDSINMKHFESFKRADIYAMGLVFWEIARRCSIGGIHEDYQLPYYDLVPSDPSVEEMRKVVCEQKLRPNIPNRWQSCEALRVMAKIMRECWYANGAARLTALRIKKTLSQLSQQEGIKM

## Cc1cccc(-c2[nH]c(CNc3ccccc3F)nc2-c2ccc3ncnn3c2)n1 [Vactosertib (2), N-((4-([1,2,4]triazolo[1,5-a]pyridin-6-yl)-5-(6-methylpyridin-2-yl)-1H-imidazol-2-yl)methyl)-2-fluoroaniline]
[1]
  ALK5 inhibitory activity in a kinase assay: subnanomolar
[2]
  ALK5 inhibitory activity in a cell-based luciferase reporter assay: subnanomolar
[3]
  oral bioavailability: moderate

## CC(C)c1cccc(-c2[nH]c(Cc3cccc(C(N)=O)c3)nc2-c2ccc3nccnc3c2)n1 [Compound 11g, 3-((5-(6-Isopropylpyridin-2-yl)-4-(quinoxalin-6-yl)-1H-imidazol-2-yl)methyl)benzamide]
[4]
  p3TP-luciferase activity (% control): 69 ± 6.7 % control
[5]
  Caco-2 permeability (%): 34 ± 15.6%
[6]
  IC50: 1250 nM
[6]; vs 11a, 11e, 16a, 16e respectively, kinase assay
  fold less potent than the corresponding 6-methylpyridyl analogue: 13–35 fold

## Cc1cccc(-c2nn3c(c2-c2ccnc4ccc(C(N)=O)cc24)CCC3)n1 [Galunisertib (1), reference compound]
[4]
  IC50: > 100 nM
[7]
  IC50: 320 nM

## Cc1cccc(-c2[nH]c(Cc3cccc(C(N)=O)c3)nc2-c2ccc3nccnc3c2)n1 [Compound 11e, 3-((5-(6-Methylpyridin-2-yl)-4-(quinoxalin-6-yl)-1H-imidazol-2-yl)methyl)benzamide]
[4]; 0.1 µM inhibitor
  % inhibition in luciferase reporter assay: 92 % inhibition
[4]
  p3TP-luciferase activity (% control): 8 ± 5.8 % control
  IC50: 19.6 nM
[8]
  Selectivity indices against all the kinases tested: > 100
[5]
  Caco-2 permeability (%): 56% and 56 ± 26.8%
[9]; ALK5 kinase assay
  fold higher potency compared to galunisertib: 6.6 fold
[9]; read-out: IC50 for ALK5, GSK3 (14–27) substrate, 1 μM ATP, mean of duplicates
  IC50: 13 nM
[7]
  Selectivity index (IC50 for p38α/IC50 for ALK5): 22
  fold less selective against p38α than vactosertib: 6.2 fold
  fold more selective against p38α than galunisertib: 5.5 fold
  IC50: 288 nM
[6]
  IC50: 36 nM
